Measured values from the CheMixHub ionic liquid set.
± gives the uncertainty stated by the source.

Assay: xn = mol fraction of the nth substance listed

O=S(=O)([O-])C(F)(F)F.[Li+] + CC[n+]1ccn(C)c1.O=S(=O)([O-])C(F)(F)F
electrical conductivity [S/m], 101 kPa
Settings | x1 = 0.007746 | x1 = 0.01537 | x2 = 0.9697 | x2 = 0.9746
288.15 K | 0.625 ± 0.063 | 0.568 ± 0.057 | – | 0.535 ± 0.054
298.15 K | 0.904 ± 0.091 | 0.837 ± 0.084 | 0.775 ± 0.078 | 0.792 ± 0.08
333.15 K | 2.31 ± 0.23 | 2.14 ± 0.21 | 2.02 ± 0.2 | 2.05 ± 0.2

OCC(O)CO + CCCCCCCCCCCC[P+](CC)(CC)CC.N#Cc1ccc[n-]1
100 kPa, x2 = 0
Settings | viscosity [mPa·s]
293.15 K | 1360 ± 210
298.15 K | 860 ± 130
303.15 K | 542 ± 80
313.15 K | 217 ± 32

CCCC[P+](CCCC)(CCCC)CCCC.[Br-] + OCC(O)CO + O
viscosity [mPa·s], 101.3 kPa
Settings | x1 = 0.03663, x2 = 0.07337 | x1 = 0.06194, x2 = 0.1241 | x1 = 0.09824, x2 = 0.1968 | x1 = 0.1305, x2 = 0.2615 | x1 = 0.1725, x2 = 0.3455 | x1 = 0.1845, x2 = 0.3695 | x1 = 0.2344, x2 = 0.4696 | x1 = 0.2594, x2 = 0.5196 | x1 = 0.3007, x2 = 0.6023 | x1 = 0.333, x2 = 0.667
293.15 K | 9.46 ± 0.98 | 24.1 ± 2.5 | 60.1 ± 6.1 | 99 ± 10 | 156 ± 16 | 170 ± 17 | 249 ± 25 | 300 ± 31 | 393 ± 41 | 468 ± 49
298.15 K | 7.51 ± 0.77 | 18.5 ± 1.9 | 45.8 ± 4.6 | 72.1 ± 7.3 | 109 ± 11 | 120 ± 12 | 176 ± 18 | 212 ± 22 | 276 ± 28 | 329 ± 34
303.15 K | 6.25 ± 0.64 | 15 ± 1.5 | 35.7 ± 3.6 | 55 ± 5.5 | 79.9 ± 8 | 90.9 ± 9.2 | 130 ± 13 | 154 ± 16 | 198 ± 20 | 235 ± 24
308.15 K | 5.21 ± 0.53 | 12 ± 1.2 | 28.3 ± 2.9 | 42.6 ± 4.3 | 62.8 ± 6.3 | 67.8 ± 6.8 | 96.5 ± 9.7 | 118 ± 12 | 145 ± 15 | 172 ± 17
313.15 K | 4.15 ± 0.43 | 9.9 ± 1 | 22.1 ± 2.2 | 32.4 ± 3.3 | 47 ± 4.7 | 49.3 ± 5 | 66.5 ± 6.7 | 88.4 ± 8.9 | 99 ± 10 | 116 ± 12
318.15 K | 3.74 ± 0.38 | 8.49 ± 0.86 | 18 ± 1.8 | 26.4 ± 2.7 | 38.4 ± 3.9 | 41.4 ± 4.2 | 57.6 ± 5.8 | 67.5 ± 6.8 | 83.2 ± 8.4 | 97.1 ± 9.8
323.15 K | 3.26 ± 0.33 | 7.02 ± 0.71 | 14.5 ± 1.5 | 21 ± 2.1 | 29 ± 2.9 | 31.2 ± 3.1 | 42.5 ± 4.3 | 50.4 ± 5.1 | 57.9 ± 5.8 | 68.4 ± 6.9

CCCC[P+](CCCC)(CCCC)CCCC.[Br-] + OCC(O)CO
101.3 kPa, x1 = 0.333
Settings | viscosity [mPa·s]
293.15 K | 468 ± 51
298.15 K | 329 ± 34
303.15 K | 235 ± 24
308.15 K | 172 ± 17
313.15 K | 116 ± 12
318.15 K | 97.1 ± 9.8
323.15 K | 68.4 ± 6.9

O=c1cc[nH]c(=O)[nH]1 + CC(=O)[O-].CC[n+]1ccn(C)c1
Settings | viscosity [mPa·s]
298.15 K, 100 kPa, x1 = 0.233 | 773

O=S(=O)([O-])C(F)(F)F.[Li+] + CCCC[n+]1ccn(C)c1.N#C[N-]C#N
electrical conductivity [S/m], 101 kPa
Settings | x2 = 0.8612 | x2 = 0.8907 | x2 = 0.9197 | x2 = 0.9504 | x2 = 0.9799
288.15 K | 0.236 ± 0.024 | – | 0.387 ± 0.039 | 0.489 ± 0.049 | 0.591 ± 0.06
298.15 K | 0.399 ± 0.04 | 0.521 ± 0.053 | 0.625 ± 0.063 | 0.776 ± 0.078 | 0.91 ± 0.091
333.15 K | 1.4 ± 0.14 | 1.72 ± 0.17 | 1.91 ± 0.19 | 2.25 ± 0.23 | 2.55 ± 0.26

C[n+]1ccn(CCCC#N)c1.O=S(=O)([N-]S(=O)(=O)C(F)(F)F)C(F)(F)F + O=C1CCCO1
electrical conductivity [S/m], 100 kPa
Settings | x1 = 0.1003 | x1 = 0.2005 | x1 = 0.3003 | x1 = 0.4005 | x1 = 0.4997 | x1 = 0.6003 | x1 = 0.7001 | x1 = 0.8002 | x1 = 0.9003 | x1 = 1
288.15 K | 0.668 ± 0.01 | 0.774 ± 0.01 | 0.578 ± 0.01 | 0.43 ± 0.01 | 0.309 ± 0.01 | 0.225 ± 0.01 | 0.151 ± 0.01 | 0.11 ± 0.01 | 0.077 ± 0.01 | 0.061 ± 0.01
293.15 K | 0.731 ± 0.01 | 0.838 ± 0.01 | 0.635 ± 0.01 | 0.482 ± 0.01 | 0.353 ± 0.01 | 0.266 ± 0.01 | 0.186 ± 0.01 | 0.141 ± 0.01 | 0.101 ± 0.01 | 0.083 ± 0.01
298.15 K | 0.794 ± 0.01 | 0.908 ± 0.01 | 0.696 ± 0.01 | 0.54 ± 0.01 | 0.405 ± 0.01 | 0.312 ± 0.01 | 0.226 ± 0.01 | 0.176 ± 0.01 | 0.132 ± 0.01 | 0.112 ± 0.01
303.15 K | 0.862 ± 0.01 | 0.976 ± 0.01 | 0.76 ± 0.01 | 0.603 ± 0.01 | 0.46 ± 0.01 | 0.365 ± 0.01 | 0.272 ± 0.01 | 0.217 ± 0.01 | 0.169 ± 0.01 | 0.146 ± 0.01
308.15 K | 0.933 ± 0.01 | 1.05 ± 0.011 | 0.827 ± 0.01 | 0.669 ± 0.01 | 0.522 ± 0.01 | 0.424 ± 0.01 | 0.324 ± 0.01 | 0.265 ± 0.01 | 0.212 ± 0.01 | 0.185 ± 0.01
313.15 K | 1.01 ± 0.01 | 1.122 ± 0.011 | 0.897 ± 0.01 | 0.741 ± 0.01 | 0.59 ± 0.01 | 0.487 ± 0.01 | 0.383 ± 0.01 | 0.319 ± 0.01 | 0.262 ± 0.01 | 0.231 ± 0.01
318.15 K | 1.08 ± 0.011 | 1.2 ± 0.012 | 0.971 ± 0.01 | 0.817 ± 0.01 | 0.662 ± 0.01 | 0.556 ± 0.01 | 0.448 ± 0.01 | 0.379 ± 0.01 | 0.319 ± 0.01 | 0.285 ± 0.01
323.15 K | 1.16 ± 0.012 | 1.28 ± 0.013 | 1.05 ± 0.011 | 0.899 ± 0.01 | 0.741 ± 0.01 | 0.633 ± 0.01 | 0.519 ± 0.01 | 0.448 ± 0.01 | 0.384 ± 0.01 | 0.346 ± 0.01
328.15 K | 1.242 ± 0.012 | 1.36 ± 0.014 | 1.128 ± 0.011 | 0.987 ± 0.01 | 0.825 ± 0.01 | 0.714 ± 0.01 | 0.599 ± 0.01 | 0.521 ± 0.01 | 0.455 ± 0.01 | 0.414 ± 0.01
333.15 K | 1.33 ± 0.013 | 1.444 ± 0.014 | 1.21 ± 0.012 | 1.08 ± 0.011 | 0.915 ± 0.01 | 0.799 ± 0.01 | 0.686 ± 0.01 | 0.606 ± 0.01 | 0.536 ± 0.01 | 0.491 ± 0.01
338.15 K | 1.416 ± 0.014 | 1.532 ± 0.015 | 1.3 ± 0.013 | 1.18 ± 0.012 | 1.015 ± 0.01 | 0.896 ± 0.01 | 0.782 ± 0.01 | 0.695 ± 0.01 | 0.625 ± 0.01 | 0.575 ± 0.01
343.15 K | 1.508 ± 0.015 | 1.622 ± 0.016 | 1.39 ± 0.014 | 1.28 ± 0.013 | 1.115 ± 0.011 | 0.996 ± 0.01 | 0.884 ± 0.01 | 0.793 ± 0.01 | 0.719 ± 0.01 | 0.669 ± 0.01

CCCCCCCCCCCCCC[P+](CCCCCC)(CCCCCC)CCCCCC.N#Cc1nc[n-]c1C#N + COCCOCCOCCOCCOC
viscosity [mPa·s], 100 kPa
Settings | 278.15 K | 283.15 K | 288.15 K | 293.15 K | 298.15 K | 303.15 K | 308.15 K | 313.15 K | 318.15 K | 323.15 K
x2 = 0.201 | 1051 ± 66 | 723 ± 41 | 507 ± 25 | 365 ± 16 | 269 ± 10 | 203 ± 6 | 156 ± 4 | 123 ± 3 | 98 ± 5 | 79 ± 5
x2 = 0.401 | 389 ± 17 | 283 ± 11 | 209 ± 7 | 158 ± 4 | 122 ± 3 | 97 ± 2 | 77 ± 1 | 63 ± 1 | – | –
